# How the values were obtained:
# Assay type in all cases: in vivo
# rice (Oryza sativa) = assay: Test C flooded paddy test; settings: Flood; for Plant response rating (scale of 0 to 100), Rice: 0 is no effect, 100 is complete control
# Outline: (§1)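 Visual 0–100 injury rating versus controls (0 = no effect, 100 = complete control) at 13 to 15 d. 2-leaf-stage plants; pots flooded 3 cm over soil surface, test compound added to paddy water; greenhouse.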
# [1] = system: barnyardgrass (Echinochloa crus-galli); assay: Test C flooded paddy test; settings: Flood; for Plant response rating (scale of 0 to 100), Barnyardgrass: 0 is no effect, 100 is complete control
# Outline: as §1
# [2] = system: ducksalad (Heteranthera limosa); assay: Test C flooded paddy test; settings: Flood; for Plant response rating (scale of 0 to 100), Ducksalad: 0 is no effect, 100 is complete control
# Outline: as §1
# [3] = system: sedge, umbrella (small-flower umbrella sedge, Cyperus difformis); assay: Test C flooded paddy test; settings: Flood; for Plant response rating (scale of 0 to 100), Sedge, Umbrella: 0 is no effect, 100 is complete control
# Outline: as §1
# [4] = system: barnyardgrass (Echinochloa crus-galli); assay: Test B flooded paddy test; settings: Flood, 250 g ai/ha; 0 to 100 scale where 0 is no effect and 100 is complete control; 13 to 15 d
# Outline: (§2)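 Rating scale 0–100 (visual, vs untreated controls) after a 13–15 d greenhouse period; application to the flood layer, 3 cm above soil and maintained; plants at 2-leaf stage when treated.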
# [5] = system: ducksalad (Heteranthera limosa); assay: Test B flooded paddy test; settings: Flood, 250 g ai/ha; 0 to 100 scale where 0 is no effect and 100 is complete control; 13 to 15 d
# Outline: as §2
# [6] = system: sedge, umbrella (small-flower umbrella sedge, Cyperus difformis); assay: Test B flooded paddy test; settings: Flood, 250 g ai/ha; 0 to 100 scale where 0 is no effect and 100 is complete control; 13 to 15 d
# Outline: as §2
# rice (Oryra sativa) = assay: Test B flooded paddy test; settings: Flood, 250 g ai/ha; 0 to 100 scale where 0 is no effect and 100 is complete control; 13 to 15 d
# Outline: as §2
# [7] = system: pigweed (Amaranthus retroflexus); assay: Test A postemergence; settings: postemergence, 0 to 100 scale (0 no effect, 100 complete control)
# Outline: (§3)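 Ratings of 0 (no effect) to 100 (complete control) come from visual comparison with untreated controls roughly 10 d after treatment. Test chemicals, formulated in a non-phytotoxic solvent mixture with surfactant, were applied either as a preemergence directed soil spray on seeded soil or postemergence to one- to two-leaf plants 2 to 10 cm tall.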
# [8] = system: barnyardgrass (Echinochloa crus-galli); assay: Test A postemergence; settings: postemergence, 0 to 100 scale (0 no effect, 100 complete control)
# Outline: as §3
# [9] = system: giant foxtail (Setaria faberii); assay: Test A postemergence; settings: postemergence, 0 to 100 scale (0 no effect, 100 complete control)
# Outline: as §3
# [10] = system: Galium (catchweed bedstraw, Galium aparine); assay: Test A postemergence; settings: postemergence, 0 to 100 scale (0 no effect, 100 complete control)
# Outline: as §3
# [11] = system: ragweed (common ragweed, Ambrosia elatior); assay: Test A postemergence; settings: postemergence, 0 to 100 scale (0 no effect, 100 complete control)
# Outline: as §3
# [12] = system: ryegrass, Italian (Italian ryegrass, Lolium multiflorum); assay: Test A postemergence; settings: postemergence, 0 to 100 scale (0 no effect, 100 complete control)
# Outline: as §3
# [13] = system: blackgrass (Alopecurus myosuroides); assay: Test A postemergence; settings: postemergence, 0 to 100 scale (0 no effect, 100 complete control)
# Outline: as §3
# corn (Zea mays) = assay: Test A postemergence; settings: postemergence, 0 to 100 scale (0 no effect, 100 complete control)
# Outline: as §3
# [14] = system: wheat (Triticum aestivum); assay: Test A postemergence; settings: postemergence, 0 to 100 scale (0 no effect, 100 complete control)
# Outline: as §3
# Kochia (Kochia scoparia) [15] = assay: Test A postemergence; settings: postemergence, 0 to 100 scale (0 no effect, 100 complete control)
# Outline: as §3
# [16] = system: pigweed (Amaranthus retroflexus); assay: Test A preemergence
# [17] = system: barnyardgrass (Echinochloa crus-galli); assay: Test A preemergence
# Outline: as §3
# [18] = system: giant foxtail (Setaria faberii); assay: Test A preemergence
# Outline: as §3
# [19] = system: ragweed (common ragweed, Ambrosia elatior); assay: Test A preemergence
# Outline: as §3
# [20] = system: ryegrass, Italian (Italian ryegrass, Lolium multiflorum); assay: Test A preemergence
# Outline: as §3
# Kochia (Kochia scoparia) [21] = assay: Test A preemergence
# Outline: as §3
# [22] = 31 g ai/ha, scale 0 to 100 (0 no effect, 100 complete control), 13 to 15 d
# [23] = 125 g ai/ha, visual rating after approx. 10 d
# [24] = 500 g ai/ha, visual injury, approx. 10 d
# [25] = 125 g ai/ha, Preemergence, visual injury after approximately 10 d, 0 to 100 scale where 0 is no effect and 100 is complete control
# [26] = 500 g ai/ha, preemergence, 0 to 100 scale, 0 = no effect, 100 = complete control
structure (smiles),measurement,setting,value
Cc1ccc(C2CN(C)C(=O)C2C(=O)Nc2ccccc2F)cc1 (stereo not shown) [Compound 661],"Plant response rating, Rice",rice (Oryza sativa); [22],0
same,"Plant response rating (scale of 0 to 100), Rice",rice (Oryza sativa); 62 g ai/ha,0
same,"Plant response rating (scale of 0 to 100), Rice",rice (Oryza sativa); 125 g ai/ha,0
same,"Plant response rating (scale of 0 to 100), Rice",rice (Oryza sativa); 250 g ai/ha,10
same,"Plant response rating, Barnyardgrass",[1]; [22],25
same,"Plant response rating (scale of 0 to 100), Barnyardgrass",[1]; 62 g ai/ha,70
same,"Plant response rating (scale of 0 to 100), Barnyardgrass",[1]; 125 g ai/ha,80
same,"Plant response rating (scale of 0 to 100), Barnyardgrass",[1]; 250 g ai/ha,85
same,"Plant response rating, Ducksalad",[2]; [22],65
same,"Plant response rating (scale of 0 to 100), Ducksalad",[2]; 62 g ai/ha,75
same,"Plant response rating (scale of 0 to 100), Ducksalad",[2]; 125 g ai/ha,95
same,"Plant response rating (scale of 0 to 100), Ducksalad",[2]; 250 g ai/ha,100
same,"Plant response rating, Sedge, Umbrella",[3]; [22],0
same,"Plant response rating (scale of 0 to 100), Sedge, Umbrella",[3]; 62 g ai/ha,0
same,"Plant response rating (scale of 0 to 100), Sedge, Umbrella",[3]; 125 g ai/ha,0
same,"Plant response rating (scale of 0 to 100), Sedge, Umbrella",[3]; 250 g ai/ha,0
same,"Plant response rating, Barnyardgrass",[4],80
same,"Plant response rating, Ducksalad",[5],100
same,"Plant response rating, Sedge, Umbrella",[6],0
same,"Plant response rating, Rice",rice (Oryra sativa),10
same,"Plant response rating, Pigweed",[7]; [23],0
same,"Plant response rating, Pigweed",[7]; [24],0
same,"Plant response rating, Barnyardgrass",[8]; [23],90
same,"Plant response rating, Barnyardgrass",[8]; [24],90
same,"Plant response rating, Foxtail, Giant",[9]; [23],90
same,"Plant response rating, Foxtail, Giant",[9]; [24],90
same,"Plant response rating, Galium",[10]; [23],50
same,"Plant response rating, Galium",[10]; [24],60
same,"Plant response rating, Ragweed",[11]; [23],10
same,"Plant response rating, Ragweed",[11]; [24],50
same,"Plant response rating, Ryegrass, Italian",[12]; [23],30
same,"Plant response rating, Ryegrass, Italian",[12]; [24],80
same,"Plant response rating, Blackgrass",[13]; [23],50
same,"Plant response rating, Blackgrass",[13]; [24],70
same,"Plant response rating, Corn",corn (Zea mays); [23],50
same,"Plant response rating, Corn",corn (Zea mays); [24],90
same,"Plant response rating, Wheat",[14]; [23],30
same,"Plant response rating, Wheat",[14]; [24],80
same,"Plant response rating, Kochia",Kochia (Kochia scoparia) [15]; [23],60
same,"Plant response rating, Kochia",Kochia (Kochia scoparia) [15]; [24],70
same,"Plant response rating, Pigweed",[16]; [25],0
same,"Plant response rating, Pigweed",[16]; [26],40
same,"Plant response rating, Barnyardgrass",[17]; [25],90
same,"Plant response rating, Barnyardgrass",[17]; [26],90
same,"Plant response rating, Foxtail, Giant",[18]; [25],90
same,"Plant response rating, Foxtail, Giant",[18]; [26],100
same,"Plant response rating, Ragweed",[19]; [25],70
same,"Plant response rating, Ragweed",[19]; [26],80
same,"Plant response rating, Ryegrass, Italian",[20]; [25],30
same,"Plant response rating, Ryegrass, Italian",[20]; [26],50
same,"Plant response rating, Kochia",Kochia (Kochia scoparia) [21]; [25],50
same,"Plant response rating, Kochia",Kochia (Kochia scoparia) [21]; [26],70

# — US12077503B2, “Substituted cyclic amides and their use as herbicides” (FMC CORPORATION, priority 2015, dated 2024)
